In patent publication US11053204B2, “Pyrimidinyloxy benzene derivatives as herbicides” (FMC Corporation, priority 2015, dated 2021):

Tests used:
Assay type in all cases: in vivo
[1] = tested on: barnyardgrass (Echinochloa crus-galli); assay: Test A preemergence, visual injury rating
Procedure, shortened: (§1)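 Greenhouse pot test, loam/sand soil. Formulation: non-phytotoxic solvent mix plus surfactant. Pre: directed spray onto soil after sowing. Post: plants at 1–2 leaf, 2–10 cm. Rated visually vs untreated controls at ~10 d, 0 (no effect) to 100 (complete control).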

[2] = tested on: kochia (Kochia scoparia); assay: Test A preemergence, visual injury rating
Procedure, shortened: as §1

[3] = tested on: blackgrass (Alopecurus myosuroides); assay: Test C postemergence, plant response rating; settings: for Plant response rating, Blackgrass: scale 0 to 100; for Blackgrass plant response rating: scale 0 to 100 (0 no effect, 100 complete control)
Excerpt: (§2) Seeds of plant species selected from blackgrass (Alopecurus myosuroides), ryegrass, Italian (Italian ryegrass, Lolium multiflorum), wheat (winter wheat, Triticum aestivum), galium (catchweed bedstraw, Galium aparine), corn (Zea mays), crabgrass, large (large crabgrass, Digitaria sanguinalis), foxtail, giant (giant foxtail, Setaria faberii), johnsongrass (Sorghum halepense), lambsquarters (Chenopodium album), morningglory (Ipomoea coccinea), nutsedge, yellow (yellow nutsedge, Cyperus esculentus), pigweed (Amaranthus retroflexus), ragweed (common ragweed, Ambrosia elatior), soybean (Glycine max), barnyardgrass (Echinochloa crus-galli), oilseed rape (Brassica napus), pigweed, palmer (palmer pigweed, Amaranthus palmeri), waterhemp (common waterhemp, Amaranthus rudis), velvetleaf (Abutilon theophrasti), kochia (Kochia scoparia), surinam grass (Brachiaria decumbens), nightshade (eastern black nightshade, Solanum ptycanthum), wild poinsettia (Euphorbia heterophylla), windgrass (Apera spica-venti), and oat, wild (wild oat Avena fatua), were planted into a blend of loam soil and sand or a silt loam soil and treated preemergence with test chemicals formulated in a non-phytotoxic solvent mixture which included a surfactant.
(§3) At the same time, plants selected from these crop and weed species and also chickweed (common chickweed, Stellaria media), buckwheat, wild (wild buckwheat, Polygonum convolvulus), wild mustard (Sinapis arvensis), field poppy (Papaver rhoeas), field violet (Viola arvensis), geranium, cutleaf (cutleaf geranium, Geranium dissectum), Canada thistle (Cirsium arvense), and speedwell (bird's-eye speedwell, Veronica persica), were planted in pots containing Sunshine Redi-Earth® planting medium comprising spaghnum peat moss, vermiculite, starter nutrients and dolomitic limestone and treated with postemergence applications of test chemicals formulated in the same manner. Plants ranged in height from 2 to 18 cm (1- to 4-leaf stage) for postemergence treatments. Treated plants and controls were maintained in a greenhouse for 13 to 15 d, after which time all species were compared to controls and visually evaluated. Plant response ratings, summarized in Table C, are based on a scale of 0 to 100 where 0 is no effect and 100 is complete control. A dash (-) response means no test result.

[4] = tested on: chickweed (common chickweed, Stellaria media); assay: Test C postemergence, plant response rating; settings: for Chickweed plant response rating: scale 0 to 100 (0 no effect, 100 complete control)
Excerpt: as §2, §3

[5] = tested on: corn (Zea mays); assay: Test C postemergence, plant response rating; settings: for Corn plant response rating: scale 0 to 100 (0 no effect, 100 complete control)
Excerpt: as §2, §3

[6] = tested on: crabgrass, large (large crabgrass, Digitaria sanguinalis); assay: Test C postemergence, plant response rating; settings: for Crabgrass, Large plant response rating: scale 0 to 100 (0 no effect, 100 complete control)
Excerpt: as §2, §3

[7] = tested on: foxtail, giant (giant foxtail, Setaria faberii); assay: Test C postemergence, plant response rating; settings: for Foxtail, Giant plant response rating: scale 0 to 100 (0 no effect, 100 complete control)
Excerpt: as §2, §3

[8] = tested on: kochia (Kochia scoparia); assay: Test C postemergence, plant response rating; settings: for Kochia plant response rating: scale 0 to 100 (0 no effect, 100 complete control)
Excerpt: as §2, §3

[9] = tested on: lambsquarters (Chenopodium album); assay: Test C postemergence, plant response rating; settings: for Lambsquarters plant response rating: scale 0 to 100 (0 no effect, 100 complete control)
Excerpt: as §2, §3

[10] = tested on: morningglory (Ipomoea coccinea); assay: Test C postemergence, plant response rating; settings: for Morningglory plant response rating: scale 0 to 100 (0 no effect, 100 complete control)
Excerpt: as §2, §3

[11] = tested on: nutsedge, yellow (yellow nutsedge, Cyperus esculentus); assay: Test C postemergence, plant response rating; settings: for Nutsedge, Yellow plant response rating: scale 0 to 100 (0 no effect, 100 complete control)
Excerpt: as §2, §3

[12] = tested on: oat, wild (wild oat Avena fatua); assay: Test C postemergence, plant response rating; settings: for Oat, Wild plant response rating: scale 0 to 100 (0 no effect, 100 complete control)
Excerpt: as §2, §3

[13] = tested on: oilseed rape (Brassica napus); assay: Test C postemergence, plant response rating; settings: for Oilseed Rape plant response rating: scale 0 to 100 (0 no effect, 100 complete control)
Excerpt: as §2, §3

[14] = tested on: ryegrass, Italian (Italian ryegrass, Lolium multiflorum); assay: Test C postemergence, plant response rating; settings: for Ryegrass, Italian plant response rating: scale 0 to 100 (0 no effect, 100 complete control)
Excerpt: as §2, §3

[15] = tested on: soybean (Glycine max); assay: Test C postemergence, plant response rating; settings: for Soybean plant response rating: scale 0 to 100 (0 no effect, 100 complete control)
Excerpt: as §2, §3

[16] = tested on: wheat (winter wheat, Triticum aestivum); assay: Test C postemergence, plant response rating
Excerpt: as §2, §3

[17] = 31 g ai/ha, 0 to 100 scale, 0 no effect, 100 complete control
[18] = 125 g ai/ha, 0 to 100 scale (0 no effect, 100 complete control)

N#Cc1cccc(Oc2ncc(Cl)cn2)c1COCCC(F)(F)F [Compound 80]
Plant response rating, Barnyardgrass [1, 17]: 60
Barnyardgrass plant response rating [1, 18]: 100
Plant response rating, Kochia [2, 17]: 100
Kochia plant response rating [2, 18]: 100
Plant response rating, Blackgrass ([3]; 16 g ai/ha): 0
Plant response rating, Blackgrass ([3]; 31 g ai/ha): 5
Blackgrass plant response rating ([3]; 62 g ai/ha): 5
Blackgrass plant response rating ([3]; 125 g ai/ha): 25
Plant response rating, Chickweed ([4]; 16 g ai/ha, scale of 0 to 100): 60
Plant response rating, Chickweed ([4]; 31 g ai/ha, scale 0 to 100): 75
Chickweed plant response rating ([4]; 62 g ai/ha): 75
Chickweed plant response rating ([4]; 125 g ai/ha): 90
Plant response rating, Corn ([5]; 16 g ai/ha, scale of 0 to 100): 15
Plant response rating, Corn ([5]; 31 g ai/ha, scale 0 to 100): 10
Corn plant response rating ([5]; 62 g ai/ha): 15
Corn plant response rating ([5]; 125 g ai/ha): 25
Plant response rating, Crabgrass, Large ([6]; 16 g ai/ha, scale of 0 to 100): 10
Plant response rating, Crabgrass, Large ([6]; 31 g ai/ha, scale 0 to 100): 15
Crabgrass, Large plant response rating ([6]; 62 g ai/ha): 10
Crabgrass, Large plant response rating ([6]; 125 g ai/ha): 30
Plant response rating, Foxtail, Giant ([7]; 16 g ai/ha, scale of 0 to 100): 5
Plant response rating, Foxtail, Giant ([7]; 31 g ai/ha, scale 0 to 100): 10
Foxtail, Giant plant response rating ([7]; 62 g ai/ha): 10
Foxtail, Giant plant response rating ([7]; 125 g ai/ha): 15
Plant response rating, Kochia ([8]; 16 g ai/ha, scale of 0 to 100): 55
Plant response rating, Kochia ([8]; 31 g ai/ha, scale 0 to 100): 75
Kochia plant response rating ([8]; 62 g ai/ha): 80
Kochia plant response rating ([8]; 125 g ai/ha): 80
Plant response rating, Lambsquarters ([9]; 16 g ai/ha, scale of 0 to 100): 50
Plant response rating, Lambsquarters ([9]; 31 g ai/ha, scale 0 to 100): 75
Lambsquarters plant response rating ([9]; 62 g ai/ha): 80
Lambsquarters plant response rating ([9]; 125 g ai/ha): 85
Plant response rating, Morningglory ([10]; 16 g ai/ha, scale of 0 to 100): 25
Plant response rating, Morningglory ([10]; 31 g ai/ha, scale 0 to 100): 35
Morningglory plant response rating ([10]; 62 g ai/ha): 55
Morningglory plant response rating ([10]; 125 g ai/ha): 60
Plant response rating, Nutsedge, Yellow ([11]; 16 g ai/ha, scale of 0 to 100): 0
Plant response rating, Nutsedge, Yellow ([11]; 31 g ai/ha, scale 0 to 100): 0
Nutsedge, Yellow plant response rating ([11]; 62 g ai/ha): 5
Nutsedge, Yellow plant response rating ([11]; 125 g ai/ha): 5
Plant response rating, Oat, Wild ([12]; 16 g ai/ha, scale of 0 to 100): 0
Plant response rating, Oat, Wild ([12]; 31 g ai/ha, scale 0 to 100): 0
Oat, Wild plant response rating ([12]; 62 g ai/ha): 10
Oat, Wild plant response rating ([12]; 125 g ai/ha): 5
Plant response rating, Oilseed Rape ([13]; 16 g ai/ha, scale of 0 to 100): 50
Plant response rating, Oilseed Rape ([13]; 31 g ai/ha, scale 0 to 100): 60
Oilseed Rape plant response rating ([13]; 62 g ai/ha): 65
Oilseed Rape plant response rating ([13]; 125 g ai/ha): 70
Plant response rating, Ryegrass, Italian ([14]; 16 g ai/ha, scale of 0 to 100): 0
Plant response rating, Ryegrass, Italian ([14]; 31 g ai/ha, scale 0 to 100): 0
Ryegrass, Italian plant response rating ([14]; 62 g ai/ha): 5
Ryegrass, Italian plant response rating ([14]; 125 g ai/ha): 5
Plant response rating, Soybean ([15]; 16 g ai/ha, scale of 0 to 100): 60
Plant response rating, Soybean ([15]; 31 g ai/ha, scale 0 to 100): 75
Soybean plant response rating ([15]; 62 g ai/ha): 90
Soybean plant response rating ([15]; 125 g ai/ha): 95
Plant response rating, Wheat ([16]; 16 g ai/ha, scale of 0 to 100): 0
Plant response rating, Wheat ([16]; 31 g ai/ha, scale 0 to 100): 0
Wheat plant response rating ([16]; 125 g ai/ha, scale 0 to 100 (0 no effect, 100 complete control)): 15
